Assay results taken from BindingDB's records for doi:10.7270/Q2PK0DK8 (Nmmlsc, 2009).

These compounds were tested against Ras-related C3 botulinum toxin substrate 1 (Mus musculus, UniProt P63001) (assay: analog inhibition of wildtype Rac1 nucleotide binding – biochemical, oxadiazole analogs, multiplex bead flow cytometry, SAR follow-up (AID 2027)). Conditions: not given.
`COc1ccc(-c2noc(CCC(=O)N3CCN(c4ccccc4Br)CC3)n2)cc1` [KUC103370N] was tested, and the EC50 was 1.7 µM.
For `COc1ccc(-c2noc(CCC(=O)N3CCN(c4cccc(C)c4C)CC3)n2)cc1` [1-[4-(2,3-dimethylphenyl)-1-piperazinyl]-3-[3-(4-methoxyphenyl)-1,2,4-oxadiazol-5-yl]-1-propanone], the EC50 was 1.31 µM.
In the case of `COc1ccc(-c2noc(CCCC(=O)N3CCN(c4cc(C)ccc4C)CC3)n2)cc1` [KUC103353N], the EC50 is reported as 3.79 µM.
For `COc1ccc(-c2cc(CCC(=O)N3CCN(c4cc(C)ccc4C)CC3)on2)cc1` [1-[4-(2,5-dimethylphenyl)piperazin-1-yl]-3-[3-(4-methoxyphenyl)-1,2-oxazol-5-yl]propan-1-one], the EC50 was > 30 µM.
With `COc1ccc(-c2noc(CCC(=O)N3CCN(c4cccc(C(F)(F)F)c4)CC3)n2)cc1` [1-{3-[3-(4-methoxyphenyl)-1,2,4-oxadiazol-5-yl]propanoyl}-4-[3-(trifluoromethyl)phenyl]piperazine] the EC50 was > 30 µM.
Compound `Cc1ccc(C)c(N2CCN(C(=O)CCc3nc(-c4ccc(C(F)(F)F)cc4)no3)CC2)c1` [1-[4-(2,5-dimethylphenyl)-1-piperazinyl]-3-[3-[4-(trifluoromethyl)phenyl]-1,2,4-oxadiazol-5-yl]-1-propanone] has an EC50 of 2.19 µM.
For `Cc1ccc(C)c(N2CCN(C(=O)CCc3nc(-c4ccccc4C(F)(F)F)no3)CC2)c1`, the EC50 was 2.11 µM.
For `COc1ccc(-c2cccc(CCC(=O)N3CCN(c4cc(C)ccc4C)CC3)c2)cc1` [UNM-0000306127], the EC50 was > 30 µM.
`Cc1ccc(C)c(N2CCN(C(=O)CCc3nc(-c4cccc(C(F)(F)F)c4)no3)CC2)c1` [KUC103380N] showed an EC50 of 2.5 µM.
`COc1ccc(-c2noc(CCC(=O)N3CCN(c4cccc(Cl)c4)CC3)n2)cc1` was tested, and the EC50 was > 30 µM.
In the case of `Cc1ccc(C)c(N2CCN(C(=O)CCc3nc(-c4cccc(F)c4)no3)CC2)c1` [KUC103366N], the EC50 is reported as 1.48 µM.
In the case of `COc1ccc(-c2noc(CCC(=O)N3CCC(c4cc(C)ccc4C)CC3)n2)cc1` [KUC103432N], the EC50 is reported as 1.22 µM.
For `COc1ccc(-c2noc(CCC(=O)N3CCN(c4cccc(F)c4)CC3)n2)cc1` [1-[4-(3-fluorophenyl)piperazin-1-yl]-3-[3-(4-methoxyphenyl)-1,2,4-oxadiazol-5-yl]propan-1-one], the EC50 was > 30 µM.
For `Cc1ccc(C)c(N2CCN(C(=O)CCc3nc(-c4ccccc4F)no3)CC2)c1` [KUC103401N], the EC50 was 1.82 µM.
Compound `COc1ccc(-c2noc(CCCCC(=O)N3CCN(c4cc(C)ccc4C)CC3)n2)cc1` [1-[4-(2,5-dimethylphenyl)-1-piperazinyl]-5-[3-(4-methoxyphenyl)-1,2,4-oxadiazol-5-yl]-1-pentanone] has an EC50 of 21 µM.
`COc1ccc(-c2noc(CCC(=O)N3CCN(c4ccccc4Cl)CC3)n2)cc1` [1-[4-(2-chlorophenyl)piperazin-1-yl]-3-[3-(4-methoxyphenyl)-1,2,4-oxadiazol-5-yl]propan-1-one] was tested, and the EC50 was 3.34 µM.
In the case of `COc1ccc(-c2noc(CCC(=O)N3CCN(c4cc(C)ccc4C)CC3)n2)cc1` [1-[4-(2,5-dimethylphenyl)-1-piperazinyl]-3-[3-(4-methoxyphenyl)-1,2,4-oxadiazol-5-yl]-1-propanone], the EC50 is reported as 5.08 µM.
`Cc1ccc(C)c(N2CCN(C(=O)CCc3nc(-c4ccccc4Br)no3)CC2)c1` [3-[3-(2-bromophenyl)-1,2,4-oxadiazol-5-yl]-1-[4-(2,5-dimethylphenyl)-1-piperazinyl]-1-propanone] showed an EC50 of 1.71 µM.
Compound `COc1cccc(-c2noc(CCC(=O)N3CCN(c4cc(C)ccc4C)CC3)n2)c1` has an EC50 of 6.12 µM.
For `COc1ccc(-c2cc(CCC(=O)N3CCN(c4cc(C)ccc4C)CC3)[nH]n2)cc1` [UNM-0000306150], the EC50 was > 30 µM.
`COc1ccc(-c2noc(CCC(=O)N3CCN(c4ccccc4)CC3)n2)cc1` [3-[3-(4-methoxyphenyl)-1,2,4-oxadiazol-5-yl]-1-(4-phenylpiperazin-1-yl)propan-1-one] was tested, and the EC50 was > 30 µM.
With `Cc1ccc(C)c(N2CCN(C(=O)CCc3nc(-c4ccc(N(C)C)cc4)no3)CC2)c1` [KUC103409N] the EC50 was 2.77 µM.
Compound `Cc1ccc(C)c(N2CCN(C(=O)CCc3nc(-c4ccccc4C)no3)CC2)c1` has an EC50 of 1.73 µM.
With `COc1ccc(-c2ccc(CCC(=O)N3CCN(c4cc(C)ccc4C)CC3)s2)cc1` the EC50 was > 30 µM.
`COc1ccc(-c2noc(CCC(=O)N3CCN(c4ccc(C(F)(F)F)cc4)CC3)n2)cc1` [3-[3-(4-methoxyphenyl)-1,2,4-oxadiazol-5-yl]-1-[4-[4-(trifluoromethyl)phenyl]piperazin-1-yl]propan-1-one] was tested, and the EC50 was > 30 µM.
With `COc1ccc(-c2noc(CCC(=O)N3CCN(c4cccc(OC)c4)CC3)n2)cc1` [KUC103349N] the EC50 was > 30 µM.
With `COc1ccc(-c2noc(CCC(=O)N3CCN(c4ccc(Cl)cc4)CC3)n2)cc1` [UNM-0000306121] the EC50 was > 30 µM.
`COc1ccc(-c2noc(CCC(=O)N3CCN(c4ccccc4C)CC3)n2)cc1` showed an EC50 of 1.35 µM.
For `COc1ccc(-c2ccc(CCC(=O)N3CCN(c4cc(C)ccc4C)CC3)o2)cc1` [KUC103447N], the EC50 was > 30 µM.
In the case of `Cc1ccc(C)c(N2CCN(C(=O)CCc3nc(-c4ccc(Br)cc4)no3)CC2)c1` [UNM-0000306072], the EC50 is reported as 2.97 µM.
Compound `Cc1ccc(C)c(N2CCN(C(=O)CCc3nc(-c4cccc(Cl)c4)no3)CC2)c1` [UNM-0000306086] has an EC50 of 4.97 µM.
With `Cc1ccc(C)c(N2CCN(C(=O)CCc3nc(-c4ccc(F)cc4)no3)CC2)c1` [KUC103364N] the EC50 was 1.27 µM.
Compound `Cc1ccc(-c2noc(CCC(=O)N3CCN(c4cc(C)ccc4C)CC3)n2)cc1` [1-[4-(2,5-dimethylphenyl)-1-piperazinyl]-3-[3-(4-methylphenyl)-1,2,4-oxadiazol-5-yl]-1-propanone] has an EC50 of 3.2 µM.
Work on `COc1ccc(-c2noc(CCC(=O)N3CCN(c4ccccc4F)CC3)n2)cc1` [1-[4-(2-fluorophenyl)piperazin-1-yl]-3-[3-(4-methoxyphenyl)-1,2,4-oxadiazol-5-yl]propan-1-one] yielded an EC50 of 1.11 µM.
For `Cc1cccc(-c2noc(CCC(=O)N3CCN(c4cc(C)ccc4C)CC3)n2)c1` [1-[4-(2,5-dimethylphenyl)piperazin-1-yl]-3-[3-(3-methylphenyl)-1,2,4-oxadiazol-5-yl]propan-1-one], the EC50 was 1.22 µM.
`Cc1ccc(C)c(N2CCN(C(=O)CCc3nc(-c4cccc(Br)c4)no3)CC2)c1` [KUC103367N] showed an EC50 of 1.67 µM.
With `COc1ccc(-c2noc(CCC(=O)N3CCN(c4cccc(Br)c4)CC3)n2)cc1` [1-[4-(3-bromophenyl)-1-piperazinyl]-3-[3-(4-methoxyphenyl)-1,2,4-oxadiazol-5-yl]-1-propanone] the EC50 was > 30 µM.
Work on `COc1ccc(-c2noc(CCC(=O)N3CCN(c4ccccc4C(F)(F)F)CC3)n2)cc1` [UNM-0000306082] yielded an EC50 of 1.69 µM.
`COc1ccc(-c2noc(CCC(=O)N3CCN(c4cccc(C)c4)CC3)n2)cc1` [UNM-0000306125] was tested, and the EC50 was > 30 µM.
In the case of `COc1ccc(-c2coc(CCC(=O)N3CCN(c4cc(C)ccc4C)CC3)n2)cc1` [1-[4-(2,5-dimethylphenyl)piperazin-1-yl]-3-[4-(4-methoxyphenyl)-1,3-oxazol-2-yl]propan-1-one], the EC50 is reported as 2.2 µM.
In the case of `COc1ccc(-c2ccc(CCC(=O)N3CCN(c4cc(C)ccc4C)CC3)[nH]2)cc1` [1-[4-(2,5-dimethylphenyl)piperazin-1-yl]-3-[5-(4-methoxyphenyl)-1H-pyrrol-2-yl]propan-1-one], the EC50 is reported as > 30 µM.
With `Cc1ccc(C)c(N2CCN(C(=O)CCc3nc(-c4ccc(Cl)cc4)no3)CC2)c1` [UNM-0000306083] the EC50 was 1.83 µM.
`Cc1ccc(C)c(N2CCN(C(=O)CCc3nc(-c4ccccc4Cl)no3)CC2)c1` [3-[3-(2-chlorophenyl)-1,2,4-oxadiazol-5-yl]-1-[4-(2,5-dimethylphenyl)-1-piperazinyl]-1-propanone] showed an EC50 of 1.19 µM.

Same assay, conditions: inactive by the depositor's call
For `COc1ccc(-c2noc(CCC(=O)N3CCN(c4ccc(C)cc4)CC3)n2)cc1` [3-[3-(4-methoxyphenyl)-1,2,4-oxadiazol-5-yl]-1-[4-(4-methylphenyl)piperazin-1-yl]propan-1-one], the EC50 was 2.69 µM.
Compound `COc1ccc(-c2noc(CC(=O)N3CCN(c4cc(C)ccc4C)CC3)n2)cc1` [1-[4-(2,5-dimethylphenyl)piperazin-1-yl]-2-[3-(4-methoxyphenyl)-1,2,4-oxadiazol-5-yl]ethanone] has an EC50 of 7.52 µM.
Work on `COc1ccccc1-c1noc(CCC(=O)N2CCN(c3cc(C)ccc3C)CC2)n1` [UNM-0000306071] yielded an EC50 of 15.1 µM.
Compound `Cc1ccc(C)c(N2CCN(C(=O)CCc3nc(-c4ccccc4)no3)CC2)c1` [UNM-0000306070] has an EC50 of 1.64 µM.
`COc1ccc(-c2noc(CCC(=O)N3CCN(c4ccc(Br)cc4)CC3)n2)cc1` [1-[4-(4-bromophenyl)piperazin-1-yl]-3-[3-(4-methoxyphenyl)-1,2,4-oxadiazol-5-yl]propan-1-one] was tested, and the EC50 was 0.257 µM.
Work on `COc1ccc(-c2noc(CCC(=O)N3CCN(c4ccc(F)cc4)CC3)n2)cc1` [KUC103398N] yielded an EC50 of 1.59 µM.
`COc1ccc(-c2noc(CCC(=O)N3CCN(c4ccccc4OC)CC3)n2)cc1` [3-[3-(4-methoxyphenyl)-1,2,4-oxadiazol-5-yl]-1-[4-(2-methoxyphenyl)-1-piperazinyl]-1-propanone] was tested, and the EC50 was 2.29 µM.
`COc1ccc(-c2noc(CCC(=O)N3CCN(c4ccc(OC)cc4)CC3)n2)cc1` [3-[3-(4-methoxyphenyl)-1,2,4-oxadiazol-5-yl]-1-[4-(4-methoxyphenyl)piperazin-1-yl]propan-1-one] was tested, and the EC50 was 0.527 µM.
